Values after ≈ are worked out from the molar mass of the structure shown. Read-outs that look alike come from different tables or passages of the source.
How the values were obtained:
HepG2 cells [1] = assay: cells; settings: Homo sapiens, HepG2, 24 h, read-out: IC50 of HepG2 cells
HepG2 cells [2] = tested on: HepG2 cells
human cancer cells = human cancer cells rather than normal cells; cited from earlier work
CCD-966SK cells = assay: Cell viability assay (MTT assay), normal cell line CCD-966SK; type: cell-based

Row | IC50 (HepG2 cells [1]) [µg/mL] | SMILES | selective inhibition of proliferation (human cancer cells) | other results
1 | 200 (≈ 1540 µM) | O=c1[nH]cc(F)c(=O)[nH]1 [5FU, 5-fluorouracil] | – | killing of HepG2 cells (HepG2 cells [2]; 5FU alone, high concentration): cannot be completely killed
2 | – | C=C(CC[C@@H](C)[C@H]1CC[C@H]2C3=C(C(=O)C[C@]12C)[C@@]1(C)CCC(=O)[C@@H](C)[C@@H]1CC3)[C@@H](C)C(=O)O [Antcin A, 4α-methylergosta-8,24(28)-diene-3,11-dione-26-oic acid] | selectively inhibit proliferation of human cancer cells rather than normal cells | –
3 | – | C=C(CC[C@@H](C)[C@H]1CC[C@H]2C3=C(C(=O)C[C@]12C)[C@@]1(C)CCC(=O)[C@@H](C)C1C[C@@H]3O)C(C)C(=O)O (stereo partly shown) [Antcin C, 4amethylergosta-8,24(28)-dien-3,11-trion-7P-26-oic acid] | selectively inhibit proliferation of human cancer cells rather than normal cells | –
4 | – | C=C(CC[C@@H](C)[C@H]1CC[C@H]2C3=C(C(=O)C[C@]12C)[C@@]1(C)CCC(=O)[C@@H](C)[C@@H]1CC3)C(C)C(=O)OC (stereo partly shown) [Methyl antcinate A] | selectively inhibit proliferation of human cancer cells rather than normal cells | –
5 | ~25 (≈ 62.7 µM) | CCN(CC)CCNC(=O)c1c(C)[nH]c(/C=C2\C(=O)Nc3ccc(F)cc32)c1C [sunitinib] | – | killing of normal cells (CCD-966SK cells) (CCD-966SK cells; sunitinib alone at about 25 μg/ml (FIG. 10)): also killed
6 | – | CC/C(=C(\c1ccccc1)c1ccc(OCCN(C)C)cc1)c1ccccc1 [tamoxifen] | – | killing of HepG2 cells (HepG2 cells [2]; 12.5 μg/ml tamoxifen alone): cannot be completely killed

Row | SMILES | IC50 (HepG2 cells [1]) [µg/mL] | selective inhibition of proliferation (human cancer cells) | other results
7 | O=C1c2c(O)ccc(O)c2C(=O)c2c(NCCNCCO)ccc(NCCNCCO)c21 [mitoxantrone] | ~2.5 (≈ 5.62 µM) | – | viability of normal cells (CCD-966SK cells) (CCD-966SK cells; mitoxantrone alone at about 2.5 μg/ml (FIG. 12)): reduced

Source: patent publication US20140057880A1, “ANTCIN DERIVATIVES IN COMBINATION WITH ANTI-CANCER DRUGS IN THE TREATMENT AND/OR PREVENTION OF TUMORS” (Taiwan Antitumor Biotech Co., Ltd., priority 2012, published 2014)
